From US20080312326A1, “Method for the Prevention and/or Treatment of Neurodegenerative Diseases Characterized by Administering and Ep1 Receptor Antagonist” (THE JOHN HOPKINS UNIVERSITY, priority 2005, published 2008)

Key:
[1] = tested on: NMDA-induced brain lesion in C57BL/6 mice; experiment: NMDA-induced brain lesion after ICV pretreatment, wildtype mice; type: in vivo; settings: for brain lesion volume (NMDA-induced): lesion at 48 h, vs NMDA-lesion and vehicle-NMDA groups
Procedure: (§1) Following protocols approved by the Institutional Animal Care and Use Committee of Johns Hopkins University, adult male C57BL/6 mice (Charles River, Wilmington, Mass.) and EP1^−/−, weighing 20-25 g were used in this study.
Weight and rectal temperature of each mouse was recorded before the surgical procedure. The mouse was subjected to intracerebroventricular (ICV) injection of vehicle or freshly prepared compound A or compound B followed by unilateral intrastriatal injection of NMDA, prepared in phosphate buffer saline (pH˜7.2) (J. Neurosci. 1997, 17, 6908-6917). In brief, each mouse was anesthetized, maintained at 1.0% halothane, and mounted on a stereotaxic frame (Stoelting Co., Wood Dale, Ill.). Varying body-weight (BW) doses of compound A (0.1 nmol/kg BW, n=8; 1 nmol/kg BW, n=12; 10 nmol/kg BW, n=8) or compound B (0.1 nmol/kg BW, n=8; 1 nmol/kg BW, n=12; 10 nmol/kg BW, n=9) were injected into the right lateral ventricle (stereotaxic coordinates PA-0.5 mm, lateral-1.0 mm from bregma, and ventral-2.5 mm relative to dura) over 30 sec, with the help of 1-μL Hamilton® syringe, and the needle was left in place for an additional 2 min. Twenty minutes later, 0.3 μl of 50 mM NMDA was injected into the right striatum over 2 min and the needle was left in place for additional 5 min. The NMDA-lesion control group (n=12) received 0.3 μL NMDA, and the vehicle-NMDA control group (n=11) received 0.2 μL vehicle ICV, followed by 0.3 μL NMDA in the striatum. Sham control and vehicle control groups were treated similarly with saline. After injections, mice were placed in a thermoregulated chamber maintained at 31° C. and returned to their cages after full recovery from anesthesia. Throughout the experimental procedure, rectal temperature of mice was monitored and maintained at 37.0±0.5° C.
(§2) At 48 h […], weight and rectal temperature were recorded and brains were harvested and immediately frozen in 2-methyl butane (pre-cooled over dry ice). Brain sections were cut on a cryostat and stained with cresyl violet to estimate lesion volume. Images of the brain sections were taken and analyzed with the help of SigmaScan Pro 5.0 (Systat, Inc., Point Richmond, Calif.).
Data were analyzed using SigmaStat 2.0 (Systat), and significance level was set at p<0.05. Statistical analysis was performed by Student's t-test. All data are reported as means±s.d.

[2] = tested on: NMDA-induced toxicity in EP1−/− mice; experiment: NMDA-induced brain lesion after ICV treatment, EP1−/− mice; type: in vivo; settings: ICV treatment of EP1−/− mice, compared to the untreated EP1−/− group
Procedure: as §1
Weight and rectal temperature of each mouse was recorded before the surgical procedure. The mouse was subjected to intracerebroventricular (ICV) injection of vehicle or freshly prepared compound A or compound B followed by unilateral intrastriatal injection of NMDA, prepared in phosphate buffer saline (pH˜7.2) (J. Neurosci. 1997, 17, 6908-6917). In brief, each mouse was anesthetized, maintained at 1.0% halothane, and mounted on a stereotaxic frame (Stoelting Co., Wood Dale, Ill.). […] Throughout the experimental procedure, rectal temperature of mice was monitored and maintained at 37.0±0.5° C.
as §2, with “Brain sections were cut on a cryostat and stained with cresyl violet to estimate lesion volume.” left out
Data were analyzed using SigmaStat 2.0 (Systat), and significance level was set at p<0.05. […]

[3] = 0.1 nmol/kg BW ICV pretreatment 20 min before intrastriatal 50 mM NMDA
[4] = 1 nmol/kg BW ICV pretreatment 20 min before intrastriatal 50 mM NMDA
[5] = 10 nmol/kg BW ICV pretreatment 20 min before intrastriatal 50 mM NMDA

Row | Structure (SMILES) | brain lesion volume (NMDA-induced) [1, 3] | brain lesion volume (NMDA-induced) [1, 4] | brain lesion volume (NMDA-induced) [1, 5] | lesion volume to NMDA-induced toxicity in EP1−/− mice [2] | toxicity (lesion volume) of the 10 nmol/kg BW dose compared to the 1 mmol/kg BW group ([1]; 10 nmol/kg BW ICV pretreatment, NMDA-induced lesion)
1 | CCCC[C@H](C)C[C@H](O)/C=C/[C@H]1[C@H](O)CC(=O)[C@@H]1CC(=O)C1CCC(C(=O)O)CC1 (stereo partly drawn) [compound A, 4-({(1R,2R,3R)-3-hydroxy-2-[(1E,3S,5S)-3-hydroxy-5-methylnon-1-enyl]-5-oxocyclopentyl}acetyl)cyclohexanecarboxylic acid, reference compound] | non-significant increases | non-significant increases | significant increase | – | –
2 | CC(C)CN(c1ccc(C(F)(F)F)cc1OCc1ccc(/C=C/C(=O)O)cc1)S(=O)(=O)c1ccco1 [compound B, (2E)-3-(4-{[2-[(2-furylsulfonyl)(isobutyl)amino]-5-(trifluoromethyl)phenoxy]methyl}phenyl)acrylic acid] | No significant protection | significantly decreased | significantly decreased | no significant difference | slight, but not significant, toxicity
